In the test the test system is TPM3-NTRK1-wt IC50 / primary target (e.g. CD74-ROS1-wt) IC50, Ba/F3 cells. The test is described as follows: Cell assay TRKA selectivity (TRKA potency divided by primary target potency). In kind it is cell-based. The settings on record: for TPM3-NTRK1-wt/CD74-ROS1-G2032R: TRKA selectivity ratio: TPM3-NTRK1-wt IC50 / CD74-ROS1-G2032R IC50, Ba/F3 cells; for TPM3-NTRK1-wt/CD74-ROS1-wt: TRKA selectivity ratio: TPM3-NTRK1-wt IC50 / CD74-ROS1-wt IC50, Ba/F3 cells; for TPM3-NTRK1-wt/EML4-ALK-L1196M-G1202R: TRKA selectivity ratio: TPM3-NTRK1-wt IC50 / EML4-ALK-L1196M-G1202R IC50, Ba/F3 cells; for TPM3-NTRK1-wt/EML4-ALK-wt: TRKA selectivity ratio: TPM3-NTRK1-wt IC50 / EML4-ALK-wt IC50, Ba/F3 cells. Summed up: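 Ratio of TRKA to primary-target cellular IC50 (e.g. TPM3-NTRK1-wt/CD74-ROS1-wt), grouped into bins A >30, B >10, C ≥1, D <1. Each IC50 came from engineered Ba/F3 fusion lines grown without IL-3, dosed for 72 h and read as CellTiter-Glo luminescence, with a four-parameter logistic fit.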

The results in this text go back to patent US11667649B2, “Heteroaromatic macrocyclic ether chemotherapeutic agents” (Nuvalent, Inc., priority 2020, dated 2023).

`Cc1nc2c(s1)Cn1ncc(C(F)F)c1-c1cnc(N)c(c1)O[C@H](C)c1cc(F)ccc1-2` [Example 68, (19R)-3-(difluoromethyl)-16-fluoro-10,19-dimethyl-20-oxa-9-thia-5,6,11,23-tetraazapentacyclo[19.3.1.0^2,^6.0^8,^12.0^13,^18]pentacosa-1(24),2,4,8(12),10,13,15,17,21(25),22-decaen-22-amine]: the TPM3-NTRK1-wt/CD74-ROS1-G2032R result is “B (bin B for high selectivity, ratio>10-fold)”; the TPM3-NTRK1-wt/CD74-ROS1-wt entry is “A (bin A for very high selectivity, ratio>30-fold)”; the TPM3-NTRK1-wt/EML4-ALK-L1196M-G1202R entry is recorded as “C (bin C for moderate selectivity, ratio≥1)”; the TPM3-NTRK1-wt/EML4-ALK-wt result was “B (bin B for high selectivity, ratio>10-fold)”.
As to `CCn1ncc2c1-c1cnc(N)c(c1)OCc1cc(F)ccc1-n1nc(C)cc1C2` [Example 69, 3-ethyl-16-fluoro-10-methyl-20-oxa-3,4,11,12,23-pentaazapentacyclo[19.3.1.0^2,^6.0^8,^12.0^13,^18]pentacosa-1(24),2(6),4,8,10,13,15,17,21(25),22-decaen-22-amine], the TPM3-NTRK1-wt/CD74-ROS1-G2032R result is “A (bin A for very high selectivity, ratio>30-fold)”; the TPM3-NTRK1-wt/CD74-ROS1-wt entry is reported as “A (bin A for very high selectivity, ratio>30-fold)”; the TPM3-NTRK1-wt/EML4-ALK-L1196M-G1202R result is on record as “B (bin B for high selectivity, ratio>10-fold)”; the TPM3-NTRK1-wt/EML4-ALK-wt entry was “A (bin A for very high selectivity, ratio>30-fold)”.
In the case of `CCn1nnc2c1-c1cnc(N)c(c1)O[C@H](C)c1cc(F)ccc1-c1ncc(F)cc1C2` [Example 70, (20R)-3-ethyl-10,17-difluoro-20-methyl-21-oxa-3,4,5,12,24-pentaazapentacyclo[20.3.1.0^2,^6.0^8,^13.0^14,^19]hexacosa-1(25),2(6),4,8(13),9,11,14,16,18,22(26),23-undecaen-23-amine], the TPM3-NTRK1-wt/CD74-ROS1-G2032R result is reported as “A (bin A for very high selectivity, ratio>30-fold)”; the TPM3-NTRK1-wt/CD74-ROS1-wt result was “A (bin A for very high selectivity, ratio>30-fold)”; the TPM3-NTRK1-wt/EML4-ALK-L1196M-G1202R result is “C (bin C for moderate selectivity, ratio≥1)”; the TPM3-NTRK1-wt/EML4-ALK-wt result was “A (bin A for very high selectivity, ratio>30-fold)”.
Turning to `CCn1ncc2c1-c1cnc(N)c(c1)O[C@H](C)c1cc(F)ccc1-n1nc(F)cc1C2` [Example 71, (19R)-3-ethyl-10,16-difluoro-19-methyl-20-oxa-3,4,11,12,23-pentaazapentacyclo[19.3.1.0^2,^6.0^8,^12.0^13,^18]pentacosa-1(24),2(6),4,8,10,13,15,17,21(25),22-decaen-22-amine], the TPM3-NTRK1-wt/CD74-ROS1-G2032R entry is on record as “A (bin A for very high selectivity, ratio>30-fold)”; the TPM3-NTRK1-wt/CD74-ROS1-wt result is recorded as “B (bin B for high selectivity, ratio>10-fold)”; the TPM3-NTRK1-wt/EML4-ALK-L1196M-G1202R entry is recorded as “C (bin C for moderate selectivity, ratio≥1)”; the TPM3-NTRK1-wt/EML4-ALK-wt entry was “B (bin B for high selectivity, ratio>10-fold)”.
Turning to `Cc1nc2c(s1)Cc1cnn(C(F)F)c1-c1cnc(N)c(c1)O[C@H](C)c1cc(F)ccc1-2` [Example 72, (19R)-3-(difluoromethyl)-16-fluoro-10,19-dimethyl-20-oxa-9-thia-3,4,11,23-tetraazapentacyclo[19.3.1.0^2,^6.0^8,^12.0^13,^18]pentacosa-1(24),2(6),4,8(12),10,13,15,17,21(25),22-decaen-22-amine], the TPM3-NTRK1-wt/CD74-ROS1-G2032R entry is reported as “A (bin A for very high selectivity, ratio>30-fold)”; the TPM3-NTRK1-wt/CD74-ROS1-wt entry is recorded as “A (bin A for very high selectivity, ratio>30-fold)”; the TPM3-NTRK1-wt/EML4-ALK-L1196M-G1202R result was “C (bin C for moderate selectivity, ratio≥1)”; the TPM3-NTRK1-wt/EML4-ALK-wt entry is given as “A (bin A for very high selectivity, ratio>30-fold)”.
As to `CCn1nc(Cl)c2c1-c1cnc(N)c(c1)O[C@H](C)c1cc(F)ccc1-c1nn(C)cc1C2` [Example 73, (19R)-5-chloro-3-ethyl-16-fluoro-10,19-dimethyl-20-oxa-3,4,10,11,23-pentaazapentacyclo[19.3.1.0^2,^6.0^8,^12.0^13,^18]pentacosa-1(24),2(6),4,8,11,13,15,17,21(25),22-decaen-22-amine], the TPM3-NTRK1-wt/CD74-ROS1-G2032R result is “A (bin A for very high selectivity, ratio>30-fold)”; the TPM3-NTRK1-wt/CD74-ROS1-wt entry is listed as “A (bin A for very high selectivity, ratio>30-fold)”; the TPM3-NTRK1-wt/EML4-ALK-L1196M-G1202R entry is given as “B (bin B for high selectivity, ratio>10-fold)”; the TPM3-NTRK1-wt/EML4-ALK-wt result was “A (bin A for very high selectivity, ratio>30-fold)”.
For `CCn1ncc2c1-c1cnc(N)c(c1)O[C@H](C)c1cc(F)ccc1-n1nc(Cl)cc1C2` [Example 74, (19R)-10-chloro-3-ethyl-16-fluoro-19-methyl-20-oxa-3,4,11,12,23-pentaazapentacyclo[19.3.1.0^2,^6.0^8,^12.0^13,^18]pentacosa-1(24),2(6),4,8,10,13,15,17,21(25),22-decaen-22-amine], the TPM3-NTRK1-wt/CD74-ROS1-G2032R entry is on record as “A (bin A for very high selectivity, ratio>30-fold)”; the TPM3-NTRK1-wt/CD74-ROS1-wt result is “A (bin A for very high selectivity, ratio>30-fold)”; the TPM3-NTRK1-wt/EML4-ALK-L1196M-G1202R result is “B (bin B for high selectivity, ratio>10-fold)”; the TPM3-NTRK1-wt/EML4-ALK-wt entry is listed as “A (bin A for very high selectivity, ratio>30-fold)”.
Turning to `CCn1ncc2c1-c1cnc(N)c(c1)OCc1cc(F)ccc1-n1nc(Cl)cc1C2` [Example 75, 10-chloro-3-ethyl-16-fluoro-20-oxa-3,4,11,12,23-pentaazapentacyclo[19.3.1.0^2,^6.0^8,^12.0^13,^18]pentacosa-1(24),2(6),4,8,10,13,15,17,21(25),22-decaen-22-amine], the TPM3-NTRK1-wt/CD74-ROS1-G2032R entry is “A (bin A for very high selectivity, ratio>30-fold)”; the TPM3-NTRK1-wt/CD74-ROS1-wt entry is recorded as “A (bin A for very high selectivity, ratio>30-fold)”; the TPM3-NTRK1-wt/EML4-ALK-L1196M-G1202R entry is on record as “C (bin C for moderate selectivity, ratio≥1)”; the TPM3-NTRK1-wt/EML4-ALK-wt entry is recorded as “A (bin A for very high selectivity, ratio>30-fold)”.
Turning to `CCn1nc(Cl)c2c1-c1cnc(N)c(c1)O[C@H](C)c1cc(F)ccc1-n1nc(C)cc1C2` [Example 76, (19R)-5-chloro-3-ethyl-16-fluoro-10,19-dimethyl-20-oxa-3,4,11,12,23-pentaazapentacyclo[19.3.1.0^2,^6.0^8,^12.0^13,^18]pentacosa-1(24),2(6),4,8,10,13,15,17,21(25),22-decaen-22-amine], the TPM3-NTRK1-wt/CD74-ROS1-G2032R result was “A (bin A for very high selectivity, ratio>30-fold)”; the TPM3-NTRK1-wt/CD74-ROS1-wt result is “A (bin A for very high selectivity, ratio>30-fold)”; the TPM3-NTRK1-wt/EML4-ALK-L1196M-G1202R entry was “B (bin B for high selectivity, ratio>10-fold)”; the TPM3-NTRK1-wt/EML4-ALK-wt result was “A (bin A for very high selectivity, ratio>30-fold)”.
For `CCn1ncc2c1-c1cnc(N)c(c1)O[C@H](C)c1cc(F)ccc1-c1ncoc1C2` [Example 77, (19R)-3-ethyl-16-fluoro-19-methyl-9,20-dioxa-3,4,11,23-tetraazapentacyclo[19.3.1.0^2,^6.0^8,^12.0^13,^18]pentacosa-1(24),2(6),4,8(12),10,13,15,17,21(25),22-decaen-22-amine], the TPM3-NTRK1-wt/CD74-ROS1-G2032R entry is “A (bin A for very high selectivity, ratio>30-fold)”; the TPM3-NTRK1-wt/CD74-ROS1-wt entry was “A (bin A for very high selectivity, ratio>30-fold)”; the TPM3-NTRK1-wt/EML4-ALK-L1196M-G1202R result is on record as “C (bin C for moderate selectivity, ratio≥1)”; the TPM3-NTRK1-wt/EML4-ALK-wt entry is reported as “A (bin A for very high selectivity, ratio>30-fold)”.
For the compound `CCn1nnc2c1-c1cnc(N)c(c1)O[C@H](C)c1cc(F)ccc1-c1nc(C)sc1C2` [Example 78, (19R)-3-ethyl-16-fluoro-10,19-dimethyl-20-oxa-9-thia-3,4,5,11,23-pentaazapentacyclo[19.3.1.0^2,^6.0^8,^12.0^13,^18]pentacosa-1(24),2(6),4,8(12),10,13,15,17,21(25),22-decaen-22-amine], the TPM3-NTRK1-wt/CD74-ROS1-G2032R entry was “A (bin A for very high selectivity, ratio>30-fold)”; the TPM3-NTRK1-wt/CD74-ROS1-wt result is on record as “A (bin A for very high selectivity, ratio>30-fold)”; the TPM3-NTRK1-wt/EML4-ALK-L1196M-G1202R result is listed as “B (bin B for high selectivity, ratio>10-fold)”; the TPM3-NTRK1-wt/EML4-ALK-wt entry is given as “A (bin A for very high selectivity, ratio>30-fold)”.
Consider `Cc1nn(CC(F)F)c2c1Cc1cn(C)nc1-c1ccc(F)cc1[C@@H](C)Oc1cc-2cnc1N` [Example 79, (19R)-3-(2,2-difluoroethyl)-16-fluoro-5,10,19-trimethyl-20-oxa-3,4,10,11,23-pentaazapentacyclo[19.3.1.0^2,^6.0^8,^12.0^13,^18]pentacosa-1(24),2(6),4,8,11,13,15,17,21(25),22-decaen-22-amine], for which the TPM3-NTRK1-wt/CD74-ROS1-G2032R entry is given as “A (bin A for very high selectivity, ratio>30-fold)”; the TPM3-NTRK1-wt/CD74-ROS1-wt entry is “A (bin A for very high selectivity, ratio>30-fold)”; the TPM3-NTRK1-wt/EML4-ALK-L1196M-G1202R entry is “A (bin A for very high selectivity, ratio>30-fold)”; the TPM3-NTRK1-wt/EML4-ALK-wt result is recorded as “A (bin A for very high selectivity, ratio>30-fold)”.
Take `CCn1ncc2c1-c1cnc(N)c(c1)O[C@H](C)c1cc(F)ccc1-n1nc(Br)cc1C2` [Example 80, (19R)-10-bromo-3-ethyl-16-fluoro-19-methyl-20-oxa-3,4,11,12,23-pentaazapentacyclo[19.3.1.0^2,^6.0^8,^12.0^13,^18]pentacosa-1(24),2(6),4,8,10,13,15,17,21(25),22-decaen-22-amine]: the TPM3-NTRK1-wt/CD74-ROS1-G2032R result is reported as “A (bin A for very high selectivity, ratio>30-fold)”; the TPM3-NTRK1-wt/CD74-ROS1-wt entry was “A (bin A for very high selectivity, ratio>30-fold)”; the TPM3-NTRK1-wt/EML4-ALK-L1196M-G1202R entry is reported as “B (bin B for high selectivity, ratio>10-fold)”; the TPM3-NTRK1-wt/EML4-ALK-wt result is reported as “A (bin A for very high selectivity, ratio>30-fold)”.
